According to patent US20260146274A1, “RECOMBINANT SMALL-MOLECULE COLLAGEN, EXPRESSION SYSTEM THEREOF, AND PREPARATION METHOD THEREOF” (JIANGSU TRAUTEC MEDICAL TECHNOLOGY CO., LTD., priority 2023, published 2026):

System: NIH/3T3 cell
Experiment: Cell adhesion activity detection (LDH kit, OD492 nm)
Type: cell-based
Details: for cell adhesion activity (absorbance at OD492 nm) compared with natural human collagen: protein coated at 0.5 mg/mL, NIH/3T3 cells, 60 minutes, FIG. 26
Experimental: References for Detection Method for Cell Adhesion Activity of Recombinant Small-Molecule Collagen: Juming Yao, Satoshi Yanagisawa, Tetsuo Asakura. Design, Expression and Characterization of Collagen-Like Proteins Based on the Cell Adhesive and Crosslinking Sequences Derived from natural Collagens, J Biochem. 136, 643-649 (2004).
Specific implementation method: A NIH/3T3 cell was cultured under standard conditions (purchased from Cell Bank of the Chinese Academy of Sciences, with catalog number of GNM6. Culture and passage methods followed a cell instruction). […] A natural human collagen (Sigma, Catalog No. C7774) was compared to a bovine serum albumin solution (BSA, purchased from Sangon Biotech (Shanghai) Co., Ltd.) (in ultrapure water or 1M HCl solution). Protein concentration was determined using the UV protein quantification empirical formula: C (mg/mL)=0.144×(A215-A225). Then, the protein was diluted to 0.5 mg/mL with PBS (pH 7.4).
100 μL of various protein solutions and blank PBS solution were added to a 96-well cell culture plate, and set aside 60 minutes at room temperature. Then, […] NIH/3T3 cells with good culture status were added to each well, and incubated at 37° C. and 5% CO2 for 60 minutes. The cells were cleaned in the wells 4 times with PBS. An absorbance value at OD492 nm was detected using a LDH detection kit (Roche, 04744926001). Data were analyzed and subject to significant differential analysis (SPSS 22 software, Duncan's method, P<0.05).
The absorbance value at OD492 nm characterized the cell adhesion activity of a collagen sample: higher adhesion activity indicated more cells adhering to the protein.

[1] = equivalent concentrations (0.5 mg/mL), NIH/3T3, Duncan's method P<0.05

| Molecule | cell adhesion activity compared with larger-molecular-weight recombinant type-XVII collagen [1] | cell adhesion activity (absorbance at OD492 nm) compared with natural human collagen | cell adhesion activity compared with larger-molecular-weight recombinant type-III collagen [1] |
| --- | --- | --- | --- |
| 17S1NNT: 82 amino acids, positions 636 to 718 of full-length human collagen XVII, SEQ ID NO.5 | no significant difference | comparable to or superior to that of a natural human collagen | – |
| 3A5D1NT: 96 amino acids, positions 990 to 1085 of full-length human type III collagen, SEQ ID NO.1 (protein, listed as Homo sapiens, Recombinant small-molecule collagen 3A5D1NT) DGNPGSDGLPGRDGSPGGKGDRGENGSPGAPGAPGHPGPPGPVGPAGKSGDRGESGPAGPAGAPGPAGSRGAPGPQGPRGDKGETGERGAAGIKGH | – | comparable to or superior to that of a natural human collagen | significantly outperformed |
